The numbers were not newly measured in patent US20260014083A1, “Orally Administrable Pharmaceutical Dosage Form Comprising Lanthanum and Its Use in a Method Of Treatment of Hyperoxaluria” (AMGMT, priority 2022, published 2026), which cites them from elsewhere.

For series [1] the following is noted: in vivo.
For the next series, the system named is rat. The conditions noted are these: oxalate loading.
Series [2] has as its system patients with enteric hyperoxaluria.

Like-named read-outs stand apart in the source and are kept apart here.

`[La]` [lanthanum]: the gastro-intestinal absorption in series [1] is 0.01%.

Take `O=C([O-])[O-].O=C([O-])[O-].O=C([O-])[O-].[La+3].[La+3]` [Lanthanum carbonate, lanthanum carbonate]: in the series on rat, the CaOx crystalluria entry was “decrease”, the calciuria entry is “minor increase”, the oxaluria entry was “decrease” and the phosphaturia entry was “striking increase”.

As to `[Al]` [aluminum], the calciuria result (in vivo) is given as “increased calciuria”.

Turning to `O=C([O-])[O-].[Ca+2]` [calcium carbonate], the calciuria entry (current powerful phosphate binders) is on record as “increased calciuria”.

B1: reloxaliase: an oral enzyme therapeutic (Allena Pharmaceuticals) (protein, UniProt O34714 1-385, looked up)
Oxalate decarboxylase OxdC: MKKQNDIPQPIRGDKGATVKIPRNIERDRQNPDMLVPPETDHGTVSNMKFSFSDTHNRLEKGGYAREVTVRELPISENLASVNMRLKPGAIRELHWHKEAEWAYMIYGSARVTIVDEKGRSFIDDVGEGDLWYFPSGLPHSIQALEEGAEFLLVFDDGSFSENSTFQLTDWLAHTPKEVIAANFGVTKEEISNLPGKEKYIFENQLPGSLKDDIVEGPNGEVPYPFTYRLLEQEPIESEGGKVYIADSTNFKVSKTIASALVTVEPGAMRELHWHPNTHEWQYYISGKARMTVFASDGHARTFNYQAGDVGYVPFAMGHYVENIGDEPLVFLEIFKDDHYADVSLNQWLAMLPETFVQAHLDLGKDFTDVLSKEKHPVVKKKCSK
modifications: crosslinked enzyme crystals
B1: the “least square mean treatment difference” value in series [2] (versus placebo, p=0.004) was −14.3%. In addition, the “mean reduction in average 24-hour urinary oxalate excretion” value in series [2] (weeks 1-4, placebo 9.7%) is given as 22.6%.
